This passage reports IC50 results from patent US20240368173A1, “TRICYCLIC GPR65 MODULATORS” (PATHIOS THERAPEUTICS LIMITED, priority 2021, published 2024).

In general, IC50 refers to the concentration at which inhibition is half-maximal.

The first assay deals with human recombinant GPR65 (Homo sapiens, UniProt Q8IYL9). The assay is described as follows: Human GPR65 cAMP HTRF antagonist assay. In kind it is cell-based.
Chain of human recombinant GPR65 (Q8IYL9 whole entry): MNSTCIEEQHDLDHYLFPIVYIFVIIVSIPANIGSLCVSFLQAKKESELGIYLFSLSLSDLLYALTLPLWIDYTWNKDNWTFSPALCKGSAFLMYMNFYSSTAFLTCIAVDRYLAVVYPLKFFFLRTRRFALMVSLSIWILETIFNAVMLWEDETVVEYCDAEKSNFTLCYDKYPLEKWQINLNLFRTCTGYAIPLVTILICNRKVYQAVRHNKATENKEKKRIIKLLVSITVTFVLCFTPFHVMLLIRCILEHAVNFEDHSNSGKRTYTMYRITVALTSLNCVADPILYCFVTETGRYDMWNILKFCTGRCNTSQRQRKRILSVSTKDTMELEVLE
Conditions: not given
An outline of the steps: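 1321N1 astrocytoma cells stably expressing hrGPR65, with IBMX and EDTA, were preincubated with compound 30 min at room temperature, then acid-activated at assay pH 7.2 (control pH 7.9) for 30 min. cAMP read by HTRF (665/620 nm ratio); IC50 from 4-parameter fit normalised to high/low controls.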
(In general: Time-resolved FRET reads energy transfer from a long-lived donor to a nearby acceptor.)
Take `O=C(Nc1cc(Cl)c(-c2ccc(F)nc2)cc1F)N1[C@H]2CC[C@@H]1c1n[nH]c(=O)cc1C2` [Compound 109, (6S,9R)-N-(5-Chloro-2-fluoro-4-(6-fluoropyridin-3-yl)phenyl)-3-oxo-3,5,6,7,8,9-hexahydro-2H-6,9-epiminocyclohepta[c]pyridazine-10-carboxamide]: the IC50 was < 0.5 µM. Turning to `O=C(Nc1cc(C(F)(F)F)on1)N1[C@H]2CC[C@@H]1c1n[nH]c(=O)cc1C2` [Compound 110, (6S,9R)-3-Oxo-N-(5-(trifluoromethyl)isoxazol-3-yl)-3,5,6,7,8,9-hexahydro-2H-6,9-epiminocyclohepta[c]pyridazine-10-carboxamide], the IC50 was < 0.5 µM.

For `N#Cc1cc(F)c(NC(=O)N2[C@H]3CC[C@@H]2c2n[nH]c(=O)cc2C3)cc1Cl` [Compound 111, (6S,9R)-N-(5-Chloro-4-cyano-2-fluorophenyl)-3-oxo-3,5,6,7,8,9-hexahydro-2H-6,9-epiminocyclohepta[c]pyridazine-10-carboxamide], the IC50 is < 0.5 µM.

Turning to `N#Cc1cc(NC(=O)N2[C@H]3CC[C@@H]2c2n[nH]c(=O)cc2C3)c(F)cc1Cl` [Compound 112, (6S,9R)-N-(4-Chloro-5-cyano-2-fluorophenyl)-3-oxo-3,5,6,7,8,9-hexahydro-2H-6,9-epiminocyclohepta[c]pyridazine-10-carboxamide], the IC50 is < 0.5 µM. On the same count and under the same terms, the same measure for `O=C(Nc1cc(Cl)c(-c2ccccc2)cc1F)N1[C@H]2CC[C@@H]1c1n[nH]c(=O)cc1C2` [Compound 113, (6S,9R)-N-(2-Chloro-5-fluoro-[1,1′-biphenyl]-4-yl)-3-oxo-3,5,6,7,8,9-hexahydro-2H-6,9-epiminocyclohepta[c]pyridazine-10-carboxamide]: < 0.5 µM; for `COc1cncc(-c2cc(F)c(NC(=O)N3[C@H]4CC[C@@H]3c3n[nH]c(=O)cc3C4)cc2Cl)c1` [Compound 114, (6S,9R)—N-(5-Chloro-2-fluoro-4-(5-methoxypyridin-3-yl)phenyl)-3-oxo-3,5,6,7,8,9-hexahydro-2H-6,9-epiminocyclohepta[c]pyridazine-10-carboxamide]: < 0.5 µM; for `O=C(Nc1cc(Cl)c(-c2cccnc2F)cc1F)N1[C@H]2CC[C@@H]1c1n[nH]c(=O)cc1C2` [Compound 115, (6S,9R)—N-(5-Chloro-2-fluoro-4-(2-fluoropyridin-3-yl)phenyl)-3-oxo-3,5,6,7,8,9-hexahydro-2H-6,9-epiminocyclohepta[c]pyridazine-10-carboxamide]: < 0.5 µM. For `Cn1ncc2c(-c3cc(F)c(NC(=O)N4[C@H]5CC[C@@H]4c4n[nH]c(=O)cc4C5)cc3Cl)cccc21` [Compound 120, (6S,9R)-N-(5-Chloro-2-fluoro-4-(1-methyl-1H-indazol-4-yl)phenyl)-3-oxo-3,5,6,7,8,9-hexahydro-2H-6,9-epiminocyclohepta[c]pyridazine-10-carboxamide], the IC50 is < 0.5 µM. The same measure, in the same setting: the value for `COCCNc1ncc(-c2cc(F)c(NC(=O)N3[C@H]4CC[C@@H]3c3n[nH]c(=O)cc3C4)cc2Cl)cn1` [Compound 121, (6S,9R)-N-(5-Chloro-2-fluoro-4-(2-((2-methoxyethyl)amino)pyrimidin-5-yl)phenyl)-3-oxo-3,5,6,7,8,9-hexahydro-2H-6,9-epiminocyclohepta[c]pyridazine-10-carboxamide] was < 0.5 µM. The same measure, in the same setting: the value for `Cc1ccc(-c2cc(F)c(NC(=O)N3[C@H]4CC[C@@H]3c3n[nH]c(=O)cc3C4)cc2Cl)cn1` [Compound 123, (6S,9R)-N-(5-Chloro-2-fluoro-4-(6-methylpyridin-3-yl)phenyl)-3-oxo-3,5,6,7,8,9-hexahydro-2H-6,9-epiminocyclohepta[c]pyridazine-10-carboxamide] was < 0.5 µM; that for `N#Cc1ccc(-c2cc(F)c(NC(=O)N3[C@H]4CC[C@@H]3c3n[nH]c(=O)cc3C4)cc2Cl)cn1` [Compound 124, (6S,9R)-N-(5-Chloro-4-(6-cyanopyridin-3-yl)-2-fluorophenyl)-3-oxo-3,5,6,7,8,9-hexahydro-2H-6,9-epiminocyclohepta[c]pyridazine-10-carboxamide] was < 0.5 µM. Consider `Cc1cnccc1-c1cc(F)c(NC(=O)N2[C@H]3CC[C@@H]2c2n[nH]c(=O)cc2C3)cc1Cl` [Compound 125, (6S,9R)-N-(5-Chloro-2-fluoro-4-(3-methylpyridin-4-yl)phenyl)-3-oxo-3,5,6,7,8,9-hexahydro-2H-6,9-epiminocyclohepta[c]pyridazine-10-carboxamide], for which the IC50 was < 0.5 µM. Regarding `O=C(Nc1cc(Cl)c(-c2cncc(F)c2)cc1F)N1[C@H]2CC[C@@H]1c1n[nH]c(=O)cc1C2` [Compound 126, (6S,9R)-N-(5-Chloro-2-fluoro-4-(5-fluoropyridin-3-yl)phenyl)-3-oxo-3,5,6,7,8,9-hexahydro-2H-6,9-epiminocyclohepta[c]pyridazine-10-carboxamide], the IC50 is < 0.5 µM. The same measure, in the same setting: the same measure for `N#Cc1cncc(-c2cc(F)c(NC(=O)N3[C@H]4CC[C@@H]3c3n[nH]c(=O)cc3C4)cc2Cl)c1` [Compound 127, (6S,9R)-N-(5-Chloro-4-(5-cyanopyridin-3-yl)-2-fluorophenyl)-3-oxo-3,5,6,7,8,9-hexahydro-2H-6,9-epiminocyclohepta[c]pyridazine-10-carboxamide]: < 0.5 µM. Regarding `CS(=O)(=O)c1ccc(-c2cc(F)c(NC(=O)N3[C@H]4CC[C@@H]3c3n[nH]c(=O)cc3C4)cc2Cl)cc1` [Compound 131, (6S,9R)-N-(2-Chloro-5-fluoro-4′-(methylsulfonyl)-[1,1′-biphenyl]-4-yl)-3-oxo-3,5,6,7,8,9-hexahydro-2H-6,9-epiminocyclohepta[c]pyridazine-10-carboxamide], the IC50 is < 0.5 µM.

For `CS(=O)(=O)c1ccc(-c2cc(F)c(NC(=O)N3[C@H]4CC[C@@H]3c3n[nH]c(=O)cc3C4)cc2Cl)cc1F` [Compound 132, (6S,9R)-N-(2-Chloro-3′,5-difluoro-4′-(methylsulfonyl)-[1,1′-biphenyl]-4-yl)-3-oxo-3,5,6,7,8,9-hexahydro-2H-6,9-epiminocyclohepta[c]pyridazine-10-carboxamide], the IC50 is < 0.5 µM. On to `Cc1cc(-c2cc(F)c(NC(=O)N3[C@H]4CC[C@@H]3c3n[nH]c(=O)cc3C4)cc2Cl)ccn1` [Compound 134, (6S,9R)-N-(5-Chloro-2-fluoro-4-(2-methylpyridin-4-yl)phenyl)-3-oxo-3,5,6,7,8,9-hexahydro-2H-6,9-epiminocyclohepta[c]pyridazine-10-carboxamide], for which the IC50 was < 0.5 µM.

The assay is the same for the next values; noted with them: 1321N1-hrGPR65 cells, cAMP HTRF, assay pH 7.2; read-out: hGPR65 IC50 (Activity of selected compounds according to the invention).
Turning to `O=C(Nc1cc(-c2cccnc2F)c(-c2cccnc2F)cc1F)N1[C@H]2CC[C@@H]1c1n[nH]c(=O)cc1C2` [Compound 116, (6S,9R)-N-(2-Fluoro-4,5-bis(2-fluoropyridin-3-yl)phenyl)-3-oxo-3,5,6,7,8,9-hexahydro-2H-6,9-epiminocyclohepta[c]pyridazine-10-carboxamide], the IC50 fell in the range of 0.5 to 5 µM. In the case of `CC(=O)Nc1ccc(-c2cc(F)c(NC(=O)N3[C@H]4CC[C@@H]3c3n[nH]c(=O)cc3C4)cc2Cl)cn1` [Compound 117, (6S,9R)-N-(4-(6-Acetamidopyridin-3-yl)-5-chloro-2-fluorophenyl)-3-oxo-3,5,6,7,8,9-hexahydro-2H-6,9-epiminocyclohepta[c]pyridazine-10-carboxamide], the IC50 was 0.5 to 5 µM.

Regarding `Nc1ccc(-c2cc(F)c(NC(=O)N3[C@H]4CC[C@@H]3c3n[nH]c(=O)cc3C4)cc2Cl)cn1` [Compound 118, (6S,9R)-N-(4-(6-Aminopyridin-3-yl)-5-chloro-2-fluorophenyl)-3-oxo-3,5,6,7,8,9-hexahydro-2H-6,9-epiminocyclohepta[c]pyridazine-10-carboxamide], the IC50 was 0.5 to 5 µM. Still for that read-out and setting: the same measure for `O=C(Nc1cc(Cl)c(-c2cn[nH]c2)cc1F)N1[C@H]2CC[C@@H]1c1n[nH]c(=O)cc1C2` [Compound 119, (6S,9R)-N-(5-Chloro-2-fluoro-4-(1H-pyrazol-4-yl)phenyl)-3-oxo-3,5,6,7,8,9-hexahydro-2H-6,9-epiminocyclohepta[c]pyridazine-10-carboxamide]: > 5 µM; for `CS(=O)(=O)c1cncc(-c2cc(F)c(NC(=O)N3[C@H]4CC[C@@H]3c3n[nH]c(=O)cc3C4)cc2Cl)c1` [Compound 122, (6S,9R)-N-(5-Chloro-2-fluoro-4-(5-(methylsulfonyl)pyridin-3-yl)phenyl)-3-oxo-3,5,6,7,8,9-hexahydro-2H-6,9-epiminocyclohepta[c]pyridazine-10-carboxamide]: 0.5 to 5 µM; for `O=C(Nc1cc(Cl)c(-c2cncc(CO)c2)cc1F)N1[C@H]2CC[C@@H]1c1n[nH]c(=O)cc1C2` [Compound 128, (6S,9R)—N-(5-Chloro-2-fluoro-4-(5-(hydroxymethyl)pyridin-3-yl)phenyl)-3-oxo-3,5,6,7,8,9-hexahydro-2H-6,9-epiminocyclohepta[c]pyridazine-10-carboxamide]: 0.5 to 5 µM. On to `NC(=O)c1ccc(-c2cc(F)c(NC(=O)N3[C@H]4CC[C@@H]3c3n[nH]c(=O)cc3C4)cc2Cl)cc1` [Compound 129, (6S,9R)-N-(4′-Carbamoyl-2-chloro-5-fluoro-[1,1′-biphenyl]-4-yl)-3-oxo-3,5,6,7,8,9-hexahydro-2H-6,9-epiminocyclohepta[c]pyridazine-10-carboxamide], for which the IC50 fell in the range of 0.5 to 5 µM. Take `CNC(=O)c1ccc(-c2cc(F)c(NC(=O)N3[C@H]4CC[C@@H]3c3n[nH]c(=O)cc3C4)cc2Cl)cc1` [Compound 130, (6S,9R)-N-(2-Chloro-5-fluoro-4′-(methylcarbamoyl)-[1,1′-biphenyl]-4-yl)-3-oxo-3,5,6,7,8,9-hexahydro-2H-6,9-epiminocyclohepta[c]pyridazine-10-carboxamide]: the IC50 fell in the range of 0.5 to 5 µM. On to `CN(C)Cc1cccc(-c2cc(F)c(NC(=O)N3[C@H]4CC[C@@H]3c3n[nH]c(=O)cc3C4)cc2Cl)c1` [Compound 133, (6S,9R)-N-(2-Chloro-3′-((dimethylamino)methyl)-5-fluoro-[1,1′-biphenyl]-4-yl)-3-oxo-3,5,6,7,8,9-hexahydro-2H-6,9-epiminocyclohepta[c]pyridazine-10-carboxamide], for which the IC50 was 0.5 to 5 µM.
